{
  "source": "paper PMC6261507",
  "about": "(ACS applied nano materials, 2018)",
  "origin": "cited, not measured here",
  "system": "integrin αvβ3",
  "data": [
    {"substance": "Arg-Gly-Asp [RGD, arginine-glycine-aspartic acid]", "values": [
      {"measurement": "affinity towards integrin αvβ3", "value": "nanomolar affinity"}
    ]}
  ]
}
